Test [1] concerns the target PDGFRβ (Rattus norvegicus (Rat), UniProt Q05030). Briefly: PDGFRβ Cellular Assay (PDGFRb P-Y751 HTRF, PDGF-BB stimulated A10 cells). It is filed as cell-based. Particulars: A10 cells, 3 hours compound, 15 ng/mL PDGFbb for 10 minutes; read-out: PDGFR Cellular IC50. The method, boiled down: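 Rat A10 cells plated overnight were treated with compound for 3 h, stimulated with rat PDGF-BB (working stock 100 ng/mL in 10% FBS medium) for 10 min, then lysed.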

Test [2] addresses Tb-labeled inactive PDGFRβ (Homo sapiens (Human), UniProt P09619). Briefly: biochemical. It is filed as binding. The note with it: read-out: PDGFR Lantha IC50.
The target in test [3] is VEGFR2, unphosphorylated (Homo sapiens (Human), UniProt P35968). The test is described as follows: VEGFR ADP GLO assay. It is filed as biochemical. Particulars: 5 nM VEGFR2, 1.2 mM ATP, 1 mg/mL Srctide, 180 min. In short, it runs like this:
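Luminescent ADP detection after a 180-min room-temperature reaction of srctide plus ATP (2 mg/mL and 2.4 mM in 2× mix) in pH 7.5 HEPES buffer with DTT, Pluronic and ovalbumin. Compounds, 11 points from 10 µM, first pre-incubated 30 min with enzyme (2× mix 10 nM). IC50s fitted after scaling between DMSO and 1 µM TAK-593 controls.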

For test [4], the target named is His6-TEV-PDGFRβ (557-1016) (Homo sapiens (Human), UniProt P09619). The test is described as follows: PDGFRβ HTRF Assay. The note with it: 800 μM ATP, 0.5 μM TK-substrate biotin peptide, 30 min pre-incubation, 3 hours reaction; read-out: PDGFR HTRF IC50. The class given is biochemical. Here is the method:
Instrumentation: a. Compound liquid handling: LabCyte Echo; b. Reagent liquid handling: Thermo Scientific Multidrop Combi; c. BMG PHERAStar multilabel plate reader.
Protein Reagent: His6-TEV-PDGFRβ Protein Prep prepared at Accelagen.
Assay buffer stock solution, contains 50 mM Hepes, 10 mM MgCl2, 1 mM EGTA, and 0.01% Brij-35, 0.01% ovalbumin, 2 mM DTT at pH 7.5, in molecular biology grade water. Store at room temperature.
Assay buffer. Dilute 5× Kinase buffer 5-fold with molecular biology grade water and add DTT to 2 mM and ovalbumin to 0.1 mg/mL (or 0.01%).
2× protein solution. Make a working solution of […] PDGFRβ in assay buffer. Keep on ice until use to maintain enzyme stability.
2× substrate solution. Make a working solution of 1.6 mM ATP and 1 μM TK-substrate biotin peptide in assay buffer. 3× quench/detection solution.
Step 2. PDGFRβ E+I pre-incubation: Add 2 μL 2× protein solution to columns 1-24 using the Multidrop Combi. Centrifuge at 1000 rpm for 1 min. Incubate 30 min at RT
Step 2. Enzymatic reaction: Add 2 μL substrate solution to columns 1-24 to initiate the reaction using the Multidrop Combi; cover/seal the assay plate to reduce evaporation. Centrifuge at 1000 rpm for 1 min. Incubate at room temperature for 3 hours.
Final concentrations of components in PDGFRp cascade assay:
0.5 μM TK-substrate biotin peptide
Step 3. Quench/Detection: Add 2 μl 3× quench/detection solution to columns 1-24 using the Multidrop Combi; cover/seal the plate. Centrifuge 1 min 1000 rpm. Incubate at RT for 60 min.
HTRF ratio values calculated by the instrument (Ratio is acceptor counts/donor counts*10,000) is exported from the plate reader and used in data analysis. The exported data will be used to calculate 1) compound activity and 2) assay statistics. […] Assay statistics can include Robust Z′ and Signal to Background.
% Inhibition Calculation: Percent inhibition will be calculated for sample wells based on the equation: […]
IC50 Calculation: For IC50 determination, full 11-point dose response data will be processed using the following equation: […]

PDGFRβ, sequence (Q05030 whole entry, looked up): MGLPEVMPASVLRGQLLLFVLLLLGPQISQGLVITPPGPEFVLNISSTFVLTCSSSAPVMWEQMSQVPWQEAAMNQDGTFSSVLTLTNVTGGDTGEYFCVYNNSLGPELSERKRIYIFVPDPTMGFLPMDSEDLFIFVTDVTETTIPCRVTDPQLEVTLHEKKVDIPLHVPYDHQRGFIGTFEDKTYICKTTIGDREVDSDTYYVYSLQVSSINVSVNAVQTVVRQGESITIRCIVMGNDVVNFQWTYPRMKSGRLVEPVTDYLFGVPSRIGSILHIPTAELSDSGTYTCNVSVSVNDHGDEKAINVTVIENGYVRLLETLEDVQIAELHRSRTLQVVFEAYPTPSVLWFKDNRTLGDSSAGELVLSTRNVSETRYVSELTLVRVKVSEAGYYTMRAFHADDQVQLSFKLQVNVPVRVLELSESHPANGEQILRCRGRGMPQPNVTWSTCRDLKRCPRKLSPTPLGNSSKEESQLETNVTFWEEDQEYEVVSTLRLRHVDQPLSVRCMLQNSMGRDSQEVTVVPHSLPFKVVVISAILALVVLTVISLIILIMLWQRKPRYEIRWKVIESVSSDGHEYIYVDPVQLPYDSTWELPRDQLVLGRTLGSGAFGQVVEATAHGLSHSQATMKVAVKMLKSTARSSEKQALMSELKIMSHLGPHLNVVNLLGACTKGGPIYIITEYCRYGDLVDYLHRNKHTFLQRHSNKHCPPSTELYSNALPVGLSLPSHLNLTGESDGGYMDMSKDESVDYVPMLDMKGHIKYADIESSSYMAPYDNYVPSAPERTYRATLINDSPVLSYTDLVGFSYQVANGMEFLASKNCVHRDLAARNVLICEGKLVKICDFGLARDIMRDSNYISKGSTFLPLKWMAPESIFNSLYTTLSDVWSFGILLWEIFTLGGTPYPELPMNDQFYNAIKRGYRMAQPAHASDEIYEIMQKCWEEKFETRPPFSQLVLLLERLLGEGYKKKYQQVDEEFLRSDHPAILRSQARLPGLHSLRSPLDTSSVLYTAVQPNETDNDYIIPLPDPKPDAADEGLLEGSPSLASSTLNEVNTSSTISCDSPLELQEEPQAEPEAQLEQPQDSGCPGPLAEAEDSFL
His6-TEV-PDGFRβ (557-1016), sequence (P09619 whole entry, looked up): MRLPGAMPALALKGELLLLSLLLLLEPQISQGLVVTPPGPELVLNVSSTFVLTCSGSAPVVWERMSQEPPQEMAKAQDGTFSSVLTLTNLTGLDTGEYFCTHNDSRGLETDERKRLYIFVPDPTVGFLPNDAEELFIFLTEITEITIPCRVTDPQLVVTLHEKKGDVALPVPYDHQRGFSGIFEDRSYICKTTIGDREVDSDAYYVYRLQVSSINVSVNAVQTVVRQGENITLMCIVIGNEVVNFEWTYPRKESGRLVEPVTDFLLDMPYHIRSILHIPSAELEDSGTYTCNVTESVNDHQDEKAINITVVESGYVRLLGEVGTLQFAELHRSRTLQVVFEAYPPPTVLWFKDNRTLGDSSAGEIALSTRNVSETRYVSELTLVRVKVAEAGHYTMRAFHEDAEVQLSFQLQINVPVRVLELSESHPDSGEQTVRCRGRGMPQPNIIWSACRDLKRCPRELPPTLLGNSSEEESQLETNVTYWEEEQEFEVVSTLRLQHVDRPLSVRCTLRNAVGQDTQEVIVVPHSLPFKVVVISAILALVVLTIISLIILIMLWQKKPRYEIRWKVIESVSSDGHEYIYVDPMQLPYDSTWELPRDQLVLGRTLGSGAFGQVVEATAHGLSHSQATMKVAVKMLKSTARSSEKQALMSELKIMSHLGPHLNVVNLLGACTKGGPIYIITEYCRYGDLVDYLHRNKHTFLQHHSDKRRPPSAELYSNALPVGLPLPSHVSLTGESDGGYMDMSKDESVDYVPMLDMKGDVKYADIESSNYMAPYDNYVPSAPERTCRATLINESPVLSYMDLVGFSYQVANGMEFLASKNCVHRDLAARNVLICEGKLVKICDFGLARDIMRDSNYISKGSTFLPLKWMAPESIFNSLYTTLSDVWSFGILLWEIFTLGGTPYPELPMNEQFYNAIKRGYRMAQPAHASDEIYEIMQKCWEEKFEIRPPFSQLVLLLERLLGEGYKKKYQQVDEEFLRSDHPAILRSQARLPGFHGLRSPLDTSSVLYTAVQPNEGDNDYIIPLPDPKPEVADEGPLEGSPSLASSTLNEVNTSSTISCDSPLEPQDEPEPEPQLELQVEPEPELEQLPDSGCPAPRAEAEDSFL
Tb-labeled inactive PDGFRβ, sequence (P09619 whole entry, looked up): as above
VEGFR2, unphosphorylated, sequence (P35968 whole entry, looked up): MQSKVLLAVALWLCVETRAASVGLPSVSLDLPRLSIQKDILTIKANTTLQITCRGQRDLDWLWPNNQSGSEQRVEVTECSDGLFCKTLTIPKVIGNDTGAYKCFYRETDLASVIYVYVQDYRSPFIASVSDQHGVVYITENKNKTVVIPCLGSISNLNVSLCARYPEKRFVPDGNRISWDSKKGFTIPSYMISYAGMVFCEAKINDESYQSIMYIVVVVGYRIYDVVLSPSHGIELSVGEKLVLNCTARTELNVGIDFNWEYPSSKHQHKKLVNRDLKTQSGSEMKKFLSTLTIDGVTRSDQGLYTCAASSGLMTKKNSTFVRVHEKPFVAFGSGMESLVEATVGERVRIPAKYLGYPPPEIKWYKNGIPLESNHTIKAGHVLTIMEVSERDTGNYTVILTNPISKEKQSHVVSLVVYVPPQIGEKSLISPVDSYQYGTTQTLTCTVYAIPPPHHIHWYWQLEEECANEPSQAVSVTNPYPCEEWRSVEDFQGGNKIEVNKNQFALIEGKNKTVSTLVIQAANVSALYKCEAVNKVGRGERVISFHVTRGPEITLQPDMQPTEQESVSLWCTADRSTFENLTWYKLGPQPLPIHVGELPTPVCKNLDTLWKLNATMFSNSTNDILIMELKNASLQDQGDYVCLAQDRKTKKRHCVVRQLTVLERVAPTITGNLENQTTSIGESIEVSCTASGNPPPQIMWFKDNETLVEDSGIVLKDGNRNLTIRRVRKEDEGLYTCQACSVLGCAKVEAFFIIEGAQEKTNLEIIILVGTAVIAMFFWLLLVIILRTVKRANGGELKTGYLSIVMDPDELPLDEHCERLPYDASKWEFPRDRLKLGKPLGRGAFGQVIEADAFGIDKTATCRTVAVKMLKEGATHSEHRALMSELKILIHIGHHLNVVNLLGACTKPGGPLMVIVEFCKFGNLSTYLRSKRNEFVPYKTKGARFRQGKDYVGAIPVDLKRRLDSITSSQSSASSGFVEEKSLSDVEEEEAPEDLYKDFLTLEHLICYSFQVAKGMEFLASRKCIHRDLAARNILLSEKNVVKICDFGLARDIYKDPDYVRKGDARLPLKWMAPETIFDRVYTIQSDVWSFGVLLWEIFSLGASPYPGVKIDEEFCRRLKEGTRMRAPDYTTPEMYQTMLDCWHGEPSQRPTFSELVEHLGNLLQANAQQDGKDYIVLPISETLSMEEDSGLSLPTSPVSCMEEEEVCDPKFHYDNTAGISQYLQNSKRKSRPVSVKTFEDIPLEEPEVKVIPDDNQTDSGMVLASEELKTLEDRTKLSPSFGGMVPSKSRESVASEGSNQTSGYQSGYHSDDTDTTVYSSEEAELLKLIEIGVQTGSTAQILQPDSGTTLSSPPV

Consider `COCCn1cc(Nc2ncc3c(Nc4cc(NC(=O)CN5CCCC56CCC6)cnc4C)nn(C)c3n2)cn1` [Example 132, N-(5-((6-((1-(2-methoxyethyl)-1H-pyrazol-4-yl)amino)-1-methyl-1H-pyrazolo[3,4-d]pyrimidin-3-yl)amino)-6-methylpyridin-3-yl)-2-(5-azaspiro[3.4]octan-5-yl)acetamide], for which the IC50 in test [1] was 3.2 nM; in test [2], 2 nM; in test [3], over 7500 nM; in test [4], 0.35 nM.

Turning to `Cc1ncc(C(=O)NCCN(C)C2CCOCC2)cc1Nc1nn(C)c2nc(Nc3cncnc3)ncc12` [Example 10, 6-methyl-N-(2-(methyl(tetrahydro-2H-pyran-4-yl)amino)ethyl)-5-((1-methyl-6-(pyrimidin-5-ylamino)-1H-pyrazolo[3,4-d]pyrimidin-3-yl)amino)nicotinamide], the IC50 was 204 nM in test [1], 9.9 nM in test [2], over 7500 nM in test [3] and 0.63 nM in test [4].

Regarding `COC1CCN(CCNC(=O)c2cc(C)c(Nc3nn(C)c4nc(Nc5cnn(C)c5)ncc34)s2)CC1` [Example 49, N-(2-(4-methoxypiperidin-1-yl)ethyl)-4-methyl-5-((1-methyl-6-((1-methyl-1H-pyrazol-4-yl)amino)-1H-pyrazolo[3,4-d]pyrimidin-3-yl)amino)thiophene-2-carboxamide], the IC50 in test [1] is 105 nM; in test [2], 40.2 nM; in test [3], over 7500 nM; in test [4] it was 1.17 nM.

For `Cc1ncc(C(=O)NCCN2CC(C)(C)C2)cc1Nc1nn(C)c2nc(Nc3cncnc3)ncc12` [Example 55, N-(2-(3,3-dimethylazetidin-1-yl)ethyl)-6-methyl-5-((1-methyl-6-(pyrimidin-5-ylamino)-1H-pyrazolo[3,4-d]pyrimidin-3-yl)amino)nicotinamide], the IC50 in test [1] is 275 nM; in test [2], 9.5 nM; in test [3], over 7500 nM; in test [4] it was 0.55 nM.

On to `Cc1ncc(C(=O)NCCN2CCCC2(C)C)cc1Nc1nn(C)c2nc(Nc3ccnc(N)c3)ncc12` [Example 41, 5-((6-((2-aminopyridin-4-yl)amino)-1-methyl-1H-pyrazolo[3,4-d]pyrimidin-3-yl)amino)-N-(2-(2,2-dimethylpyrrolidin-1-yl)ethyl)-6-methylnicotinamide], for which the IC50 in test [1] is 115 nM; in test [2], 3.2 nM; in test [3], over 7500 nM; in test [4] it was 0.36 nM.

As to `Cc1ncc(C(=O)NCCN2CCCC2(C)C)cc1Nc1nn(C)c2nc(Nc3cccnc3)ncc12` [Example 42, N-(2-(2,2-dimethylpyrrolidin-1-yl)ethyl)-6-methyl-5-((1-methyl-6-(pyridin-3-ylamino)-1H-pyrazolo[3,4-d]pyrimidin-3-yl)amino)nicotinamide], the half-inhibitory concentration (IC50) was 33.2 nM in test [1], 3.9 nM in test [2], over 10000 nM in test [3] and 0.6 nM in test [4].

`CO[C@@H]1CCN(CC(=O)Nc2cnc(C)c(Nc3nn(C)c4nc(Nc5cnn(C)c5)ncc34)c2)C1` [Example 135, (R)-2-(3-methoxypyrrolidin-1-yl)-N-(6-methyl-5-((1-methyl-6-((1-methyl-1H-pyrazol-4-yl)amino)-1H-pyrazolo[3,4-d]pyrimidin-3-yl)amino)pyridin-3-yl)acetamide]: the IC50 in test [1] is 9.5 nM; in test [2], 2.8 nM; in test [3], over 7500 nM; in test [4], 0.41 nM.

For the molecule `COC(=O)C1(c2cccc(Nc3ncc4c(Nc5cc(C(=O)NCCN6CCCC6(C)C)cnc5C)nn(C)c4n3)c2)CC1` [Example 37, methyl 1-(3-((3-((5-((2-(2,2-dimethylpyrrolidin-1-yl)ethyl)carbamoyl)-2-methylpyridin-3-yl)amino)-1-methyl-1H-pyrazolo[3,4-d]pyrimidin-6-yl)amino)phenyl)cyclopropanecarboxylate], the IC50 in test [1] is 64.2 nM; in test [2], 6.5 nM; in test [3], 5560 nM; in test [4], 0.79 nM.

For `Cc1cc(Nc2ncc3c(Nc4cc(C(=O)NCCN5CCC[C@@H]5C)cnc4C)nn(C)c3n2)n(C)n1` [Example 158, (S)-5-((6-((1,3-dimethyl-1H-pyrazol-5-yl)amino)-1-methyl-1H-pyrazolo[3,4-d]pyrimidin-3-yl)amino)-6-methyl-N-(2-(2-methylpyrrolidin-1-yl)ethyl)nicotinamide], the half-inhibitory concentration (IC50) is 147 nM in test [1], 22.3 nM in test [2], over 7500 nM in test [3] and 2.63 nM in test [4].

For `Cc1ncc(C(=O)NCCC2CCCCC2)cc1Nc1nn(C)c2nc(NCCC3CCCCC3)ncc12` [Example 108, N-(2-cyclohexylethyl)-5-((6-((2-cyclohexylethyl)amino)-1-methyl-1H-pyrazolo[3,4-d]pyrimidin-3-yl)amino)-6-methylnicotinamide], the IC50 in test [1] was 2270 nM; in test [2], over 3000 nM; in test [3] it was over 7500 nM; in test [4], 172 nM.

As to `Cc1ncc(C(=O)NCCN(C)C2CCCC2)cc1Nc1nn(C)c2nc(Nc3cncnc3)ncc12` [Example 9, N-(2-(cyclopentyl(methyl)amino)ethyl)-6-methyl-5-((1-methyl-6-(pyrimidin-5-ylamino)-1H-pyrazolo[3,4-d]pyrimidin-3-yl)amino)nicotinamide], the IC50 in test [1] is 36.5 nM; in test [2], 7 nM; in test [3] it was over 7500 nM; in test [4] it was 0.59 nM.

Turning to `Cc1ncc(C(=O)NCCC2CCCCC2)cc1Nc1nn(C)c2nc(Nc3cncc(CC(=O)O)c3)ncc12` [Example 107, 2-(5-((3-((5-((2-cyclohexylethyl)carbamoyl)-2-methylpyridin-3-yl)amino)-1-methyl-1H-pyrazolo[3,4-d]pyrimidin-6-yl)amino)pyridin-3-yl)acetic acid], the IC50 is over 2000 nM in test [1], 2.8 nM in test [2], 11 nM in test [3] and 0.55 nM in test [4].

For the molecule `Cc1ncc(C(=O)NCCN2CCC(C)(C)C2)cc1Nc1nn(C)c2nc(Nc3cncnc3)ncc12` [Example 8, N-(2-(3,3-dimethylpyrrolidin-1-yl)ethyl)-6-methyl-5-((1-methyl-6-(pyrimidin-5-ylamino)-1H-pyrazolo[3,4-d]pyrimidin-3-yl)amino)nicotinamide], the half-inhibitory concentration (IC50) was 48 nM in test [1], 5.8 nM in test [2], over 7500 nM in test [3] and 0.39 nM in test [4].

In the case of `COCCn1cc(Nc2ncc3c(Nc4cc(NC(=O)CN5CCC56CCC6)cnc4C)nn(C)c3n2)cn1` [Example 130, N-(5-((6-((1-(2-methoxyethyl)-1H-pyrazol-4-yl)amino)-1-methyl-1H-pyrazolo[3,4-d]pyrimidin-3-yl)amino)-6-methylpyridin-3-yl)-2-(1-azaspiro[3.3]heptan-1-yl)acetamide], the IC50 in test [1] was 4.7 nM; in test [2], 1.5 nM; in test [3], over 7500 nM; in test [4], 0.37 nM.

For `COC1CCN(CC(=O)Nc2cnc(C)c(Nc3nn(C)c4nc(Nc5cnn(C)c5)ncc34)c2)CC1` [Example 134, 2-(4-methoxypiperidin-1-yl)-N-(6-methyl-5-((1-methyl-6-((1-methyl-1H-pyrazol-4-yl)amino)-1H-pyrazolo[3,4-d]pyrimidin-3-yl)amino)pyridin-3-yl)acetamide], the IC50 in test [1] was 7.4 nM; in test [2], 3.1 nM; in test [3] it was over 7500 nM; in test [4] it was 0.43 nM.

Source of the values: US20240360134A1, “PYRAZOLOPYRIMIDINES AND THEIR USES AS PDGFR INHIBITORS” (priority 2021, published 2024).
